Results reported in patent US12410153B2, “Compounds, compositions and methods” (Avalo Therapeutics, Inc., priority 2014, dated 2025).
Read-outs that look alike come from different tables or passages of the source.

Experiment: Repeated once-daily oral dosing with food (Days 1-7) in healthy subjects, PK and PD
Assay type: in vivo, human
Settings: for mean plasma concentrations higher vs young age subgroup: Day 7, 2 to 24 hours postdose; for AUC(0-t) / Cmax / Vd/F / Tmax / AUC(0-inf) / half-life: plasma, oral; for Cmax: read-out: Cmax, Mean (SD); for AUC(0-inf): read-out: AUCinf, Mean (SD); for half-life: read-out: t1/2, Mean (SD) (converted)
Protocol: A randomized, double-blind, placebo-controlled, parallel-dose group in-patient study is conducted to investigate the pharmacodynamic (PD) effects of crystalline Form II of Compound (I) in healthy subjects.
The study is designed as a three-part, sequential study. The sequential nature of the study ensures that a range of doses are investigated first in a young, healthy population (Part 1) before proceeding to higher doses in the healthy population and the comparator populations (intermediate age and elderly) (Parts 2 and 3). For the purposes of this study, “young” refers to a subject who is 18 to 45 years of age, “intermediate age” refers to a subject who is 46 to 64 years of age, and “elderly” refers to a subject who is 65 years of age or older.
After a screening period of up to 21 days (Days −23 to −3), 16 healthy, young male and female subjects are randomly assigned to a dose group as shown in Table 9.
Each parallel dose group is balanced for gender (approximately equal number of males and females). The randomized subjects are domiciled from Day −1 through Day 8. On Day −1, the subjects receive placebo tablets in the fed state and undergo ambulatory blood pressure monitoring (ABPM) and safety assessments to establish time-matched baselines. On Days 1-7, the subjects receive the study drug in the fed state and undergo safety, pharmacokinetic (PK) and pharmacodynamics (PD) assessments. On Days 8-11, follow-up PK and safety assessments are performed.
Safety assessments include Clinician-Administered Dissociative States Scale (CADSS), Columbia-Suicide Severity Rating Scale (C-SSRS), concomitant medication, adverse event (AE) and vital sign assessments. In PK assessments, blood samples are taken and analyzed to determine PK parameters such as Cmax, Tmax, AUC0-24, and t1/2. PD assessments include ABPM, plasma brain-derived neurotrophic factor (BDNF) measurements, and Profile of Mood States (POMS) assessments.
After a screening period of up to 21 days (Days −23 to −3), 16 subjects (8 healthy, young male and female subjects, and 8 healthy, intermediate age male and female subjects) are randomly assigned to a dose group as shown in Table 10.
After a screening period of up to 21 days (Days −23 to −3), 16 subjects (8 healthy, young male and female subjects, and 8 healthy, elderly male and female subjects) are randomly assigned to a dose group as shown in Table 11.

[1] = female, human, females, all doses pooled, Day 7
[2] = females, all doses pooled, Day 1
[3] = females, all doses pooled, Day 7
[4] = male, human, males, all doses pooled, Day 7

Cc1ccc(COC(=O)N2CC[C@H](CNc3ncccn3)[C@H](F)C2)cc1 [Form II, 4-methylbenzyl (3S, 4R)-3-fluoro-4-[(pyrimidin-2-ylamino)methyl] piperidine-1-carboxylate]
Dose-Normalized Cmax, Mean (SD) (elderly, 12 mg, Day 1): 29.11 (3.96) ng/mL/mg
AUC% extrap, Mean (SD) (elderly, 12 mg, Day 7): 9.70 (5.93) %
CL/F, Mean (SD) (elderly, 12 mg, Day 7): 2.79 (0.72) L/h
Dose-Normalized AUCinf, Mean (SD) (elderly, 12 mg, Day 7): 858.67 (325.40) h * ng/mL/mg
Dose-Normalized Cmax, Mean (SD) (elderly, 12 mg, Day 7): 29.11 (3.96) ng/mL/mg
apparent oral clearance lower vs young age group (elderly, Day 7): approximately 30%
t½ higher vs young age group (elderly, Day 7): ~38%
mean plasma concentrations higher vs young age subgroup (elderly): ~40%
AUC(0-t) (female, human, females, all doses pooled, Day 1, read-out: AUC0-24, Mean (SD)): 2340 ng·h/mL
AUC(0-t) (female, human, females, all doses pooled, Day 1, read-out: AUClast, Mean (SD)): 2310 ng·h/mL
Cmax (female, human, females, all doses pooled, Day 1): 270 ng/mL
Vd/F (female, human, females, all doses pooled, Day 1, read-out: Vz/F, Mean (SD)): 182 L
Tmax (female, human, females, all doses pooled, Day 1, read-out: tmax, Mean (SD)): 2.26 h
Tmax (female, human, females, all doses pooled, Day 1, read-out: tmax, Median): 2 h
AUC(0-t) (female, human, females, all doses pooled, Day 7, read-out: AUC0-24, Mean (SD)): 4470 ng·h/mL
AUC(0-inf) [1]: 9320 ng·h/mL
AUC(0-t) (female, human, females, all doses pooled, Day 7, read-out: AUClast, Mean (SD)): 8580 ng·h/mL
Cmax [1]: 373 ng/mL
Vd/F (female, human, females, all doses pooled, Day 7, read-out: Vss/F, Mean (SD)): 105 L
half-life [1]: 23.8 h
Tmax (female, human, females, all doses pooled, Day 7, read-out: tmax, Mean (SD)): 2.31 h
Tmax (female, human, females, all doses pooled, Day 7, read-out: tmax, Median): 2 h
Day 7/Day 1 Cmax Ratio, Mean (SD) (females, all doses pooled): 1.38 (0.27)
Observed Accumulation Index, Mean (SD) (females, all doses pooled): 1.88 (0.37)
Steady State Accumulation Index, Mean (SD) (females, all doses pooled): 1.10 (0.15)
CL/F, Mean (SD) [2]: 5.79 (0.84) L/h
Dose-Normalized Cmax, Mean (SD) [2]: 20.59 (2.86) ng/mL/mg
AUC% extrap, Mean (SD) [3]: 6.76 (4.26) %
CL/F, Mean (SD) [3]: 3.19 (0.84) L/h
Dose-Normalized AUCinf, Mean (SD) [3]: 698.59 (282.19) h * ng/mL/mg
Dose-Normalized Cmax, Mean (SD) [3]: 27.98 (5.43) ng/mL/mg
effects on average nighttime SBP and DBP (human, in vivo): smaller and less consistently observed
Day 7/Day 1 Cmax Ratio, Mean (SD) (intermediate age, 12 mg): 1.41 (0.17)
Observed Accumulation Index, Mean (SD) (intermediate age, 12 mg): 1.92 (0.25)
Steady State Accumulation Index, Mean (SD) (intermediate age, 12 mg): 1.13 (0.16)
CL/F, Mean (SD) (intermediate age, 12 mg, Day 1): 6.22 (1.34) L/h
Dose-Normalized Cmax, Mean (SD) (intermediate age, 12 mg, Day 1): 21.42 (4.22) ng/mL/mg
AUC% extrap, Mean (SD) (intermediate age, 12 mg, Day 7): 7.51 (1.85) %
CL/F, Mean (SD) (intermediate age, 12 mg, Day 7): 3.27 (0.80) L/h
Dose-Normalized AUCinf, Mean (SD) (intermediate age, 12 mg, Day 7): 675.34 (189.17) h * ng/mL/mg
Dose-Normalized Cmax, Mean (SD) (intermediate age, 12 mg, Day 7): 30.03 (5.40) ng/mL/mg
apparent oral clearance lower vs young age group (intermediate age, Day 7): approximately 18%
t½ higher vs young age group (intermediate age, Day 7): approximately 27%
mean plasma concentrations higher vs young age subgroup (intermediate age): approximately 20%
AUC(0-t) (male, human, males, all doses pooled, Day 1, read-out: AUC0-24, Mean (SD)): 2210 ng·h/mL
AUC(0-t) (male, human, males, all doses pooled, Day 1, read-out: AUClast, Mean (SD)): 2190 ng·h/mL
Cmax (male, human, males, all doses pooled, Day 1): 262 ng/mL
Vd/F (male, human, males, all doses pooled, Day 1, read-out: Vz/F, Mean (SD)): 147 L
Tmax (male, human, males, all doses pooled, Day 1, read-out: tmax, Mean (SD)): 2.12 h
Tmax (male, human, males, all doses pooled, Day 1, read-out: tmax, Median): 2 h
AUC(0-t) (male, human, males, all doses pooled, Day 7, read-out: AUC0-24, Mean (SD)): 3750 ng·h/mL
AUC(0-inf) [4]: 6770 ng·h/mL
AUC(0-t) (male, human, males, all doses pooled, Day 7, read-out: AUClast, Mean (SD)): 6350 ng·h/mL
Cmax [4]: 355 ng/mL
Vd/F (male, human, males, all doses pooled, Day 7, read-out: Vss/F, Mean (SD)): 108 L
half-life [4]: 20.6 h
Tmax (male, human, males, all doses pooled, Day 7, read-out: tmax, Mean (SD)): 1.88 h
Tmax (male, human, males, all doses pooled, Day 7, read-out: tmax, Median): 1.75 h
Day 7/Day 1 Cmax Ratio, Mean (SD) (males, all doses pooled): 1.36 (0.22)
Observed Accumulation Index, Mean (SD) (males, all doses pooled): 1.72 (0.28)
Steady State Accumulation Index, Mean (SD) (males, all doses pooled): 1.15 (0.16)
CL/F, Mean (SD) (males, all doses pooled, Day 1): 6.19 (1.15) L/h
Dose-Normalized Cmax, Mean (SD) (males, all doses pooled, Day 1): 19.78 (3.09) ng/mL/mg
AUC% extrap, Mean (SD) (males, all doses pooled, Day 7): 6.06 (5.38) %
CL/F, Mean (SD) (males, all doses pooled, Day 7): 3.74 (0.83) L/h
Dose-Normalized AUCinf, Mean (SD) (males, all doses pooled, Day 7): 512.15 (188.98) h * ng/mL/mg
Dose-Normalized Cmax, Mean (SD) (males, all doses pooled, Day 7): 26.21 (3.94) ng/mL/mg
steady-state predose plasma concentrations achieved by (repeated daily doses): ≤ 5 study day
steady-state accumulation index, on average (seven days of daily dosing): 1.1
Observed Accumulation Index, Mean (SD) (young subjects, 8 mg): 1.58 (0.19)
CL/F, Mean (SD) (young subjects, 8 mg, Day 1): 5.36 (0.48) L/h
Dose-Normalized Cmax, Mean (SD) (young subjects, 8 mg, Day 1): 22.42 (2.27) ng/mL/mg
AUC% extrap, Mean (SD) (young subjects, 8 mg, Day 7): 8.61 (8.27) %
CL/F, Mean (SD) (young subjects, 8 mg, Day 7): 3.37 (0.37) L/h
Dose-Normalized AUCinf, Mean (SD) (young subjects, 8 mg, Day 7): 513.73 (174.76) h * ng/mL/mg
Dose-Normalized Cmax, Mean (SD) (young subjects, 8 mg, Day 7): 28.00 (3.75) ng/mL/mg
Day 7/Day 1 Cmax Ratio, Mean (SD) (young subjects, 12 mg): 1.15 (0.18)
Observed Accumulation Index, Mean (SD) (young subjects, 12 mg): 1.65 (0.31)
Steady State Accumulation Index, Mean (SD) (young subjects, 12 mg): 1.01 (0.08)
CL/F, Mean (SD) (young subjects, 12 mg, Day 1): 6.46 (0.18) L/h
Dose-Normalized Cmax, Mean (SD) (young subjects, 12 mg, Day 1): 19.92 (2.78) ng/mL/mg
AUC% extrap, Mean (SD) (young subjects, 12 mg, Day 7): 4.77 (2.72) %
CL/F, Mean (SD) (young subjects, 12 mg, Day 7): 4.00 (0.60) L/h
Dose-Normalized AUCinf, Mean (SD) (young subjects, 12 mg, Day 7): 494.43 (177.79) h * ng/mL/mg
Dose-Normalized Cmax, Mean (SD) (young subjects, 12 mg, Day 7): 22.79 (3.67) ng/mL/mg
Observed Accumulation Index, Mean (SD) (young subjects, 16 mg): 1.70 (0.54)
CL/F, Mean (SD) (young subjects, 16 mg, Day 1): 6.12 (0.90) L/h
Dose-Normalized Cmax, Mean (SD) (young subjects, 16 mg, Day 1): 19.11 (1.97) ng/mL/mg
AUC% extrap, Mean (SD) (young subjects, 16 mg, Day 7): 5.38 (5.13) %
CL/F, Mean (SD) (young subjects, 16 mg, Day 7): 4.01 (1.21) L/h
Dose-Normalized AUCinf, Mean (SD) (young subjects, 16 mg, Day 7): 501.47 (311.57) h * ng/mL/mg
Dose-Normalized Cmax, Mean (SD) (young subjects, 16 mg, Day 7): 25.80 (4.07) ng/mL/mg
Observed Accumulation Index, Mean (SD) (young subjects, 20 mg): 1.71 (0.22)
CL/F, Mean (SD) (young subjects, 20 mg, Day 1): 5.90 (1.31) L/h
Dose-Normalized Cmax, Mean (SD) (young subjects, 20 mg, Day 1): 19.18 (2.87) ng/mL/mg
AUC% extrap, Mean (SD) (young subjects, 20 mg, Day 7): 2.88 (1.30) %
CL/F, Mean (SD) (young subjects, 20 mg, Day 7): 3.51 (0.97) L/h
Dose-Normalized AUCinf, Mean (SD) (young subjects, 20 mg, Day 7): 523.40 (175.33) h * ng/mL/mg
Dose-Normalized Cmax, Mean (SD) (young subjects, 20 mg, Day 7): 26.72 (4.88) ng/mL/mg
